According to patent US9334289B2, “Cephem compound having catechol or pseudo-catechol structure” (SHIONOGI & CO., LTD., priority 2011, dated 2016):

How the values were obtained:
Assay in all cases: MIC, CLSI broth microdilution, Test Example 2
Format in all cases: cell-based
E. coli SR01337 = details: TEM-1 ESBL producing strain, cation-adjusted Iso-Sensitest broth containing human Apo-transferrin, 5×10^5 cfu/mL; for MIC: Escherichia coli, SR01337, read-out: Minimum Inhibitory Concentration (MIC) E. coli SR01337
Procedure: (§1) Measurement of Minimum Inhibitory Concentration (MIC: μg/mL) was conducted according to CLSI (Clinical and Laboratory Standards Institute) method, and the amount of bacteria for inoculation was 5×10^5 cfu/mL, and cation-adjusted Iso-Sensitest broth containing human Apo-transferrin was used as a test medium, and the experiment was conducted using broth microdilution method.

P. aeruginosa SR01332 = details: VIM-11 MBL producing strain (carbapenem resistance strain), cation-adjusted Iso-Sensitest broth containing human Apo-transferrin, 5×10^5 cfu/mL; for MIC: Pseudomonas aeruginosa, SR01332, read-out: Minimum Inhibitory Concentration (MIC) P. aeruginosa SR01332
Procedure: as §1

E. coli ATCCBAA-196 = details: TEM-10 ESBL producing strain, cation-adjusted Iso-Sensitest broth containing human Apo-transferrin, 5×10^5 cfu/mL; for MIC: Escherichia coli, ATCCBAA196, read-out: Minimum Inhibitory Concentration (MIC) E. coli ATCC BAA-196
Procedure: as §1

E. cloacae NCTC13464 = details: CTX-M group 9 ESBL producing strain, cation-adjusted Iso-Sensitest broth containing human Apo-transferrin, 5×10^5 cfu/mL; for MIC: Enterobacter cloacae, NCTC13464, read-out: Minimum Inhibitory Concentration (MIC) E. cloacae NCTC 13464
Procedure: as §1

A. baumannii SR01331 = details: PER-1, OXA-23.51 ESBL- & OXA-type carbapenemase producing strain, cation-adjusted Iso-Sensitest broth containing human Apo-transferrin, 5×10^5 cfu/mL; for MIC: Acinetobacter baumannii, SR01331, read-out: Minimum Inhibitory Concentration (MIC) A. baumannii SR01331
Procedure: as §1

K. pneumoniae ATCC700603 = details: SHV18 ESBL producing strain, cation-adjusted Iso-Sensitest broth containing human Apo-transferrin, 5×10^5 cfu/mL; for MIC: Klebsiella pneumoniae, ATCC700603, read-out: Minimum Inhibitory Concentration (MIC) K. pneumoniae ATCC 700603
Procedure: as §1

P. aeruginosa SR01335 = details: VIM-1 like MBL producing strain (carbapenem resistance strain), cation-adjusted Iso-Sensitest broth containing human Apo-transferrin, 5×10^5 cfu/mL; for MIC: Pseudomonas aeruginosa, SR01335, read-out: Minimum Inhibitory Concentration (MIC) P. aeruginosa SR01335
Procedure: as §1

E. coli ATCCBAA-200 = details: SHV-4 ESBL producing strain, cation-adjusted Iso-Sensitest broth containing human Apo-transferrin, 5×10^5 cfu/mL; for MIC: Escherichia coli, ATCCBAA200, read-out: Minimum Inhibitory Concentration (MIC) E. coli ATCC BAA-200
Procedure: as §1

Row | MIC (E. coli SR01337) [µg/mL] | MIC (P. aeruginosa SR01332) [µg/mL] | MIC (E. coli ATCCBAA-196) [µg/mL] | MIC (E. cloacae NCTC13464) [µg/mL] | MIC (A. baumannii SR01331) [µg/mL] | MIC (K. pneumoniae ATCC700603) [µg/mL] | MIC (P. aeruginosa SR01335) [µg/mL] | MIC (E. coli ATCCBAA-200) [µg/mL] | Compound | Minimum Inhibitory Concentration (MIC) E. coli SR01337 (E. coli SR01337) [µg/mL] | Minimum Inhibitory Concentration (MIC) P. aeruginosa SR01332 (P. aeruginosa SR01332) [µg/mL] | Minimum Inhibitory Concentration (MIC) E. coli ATCC BAA-196 (E. coli ATCCBAA-196) [µg/mL] | Minimum Inhibitory Concentration (MIC) E. cloacae NCTC 13464 (E. cloacae NCTC13464) [µg/mL] | Minimum Inhibitory Concentration (MIC) A. baumannii SR01331 (A. baumannii SR01331) [µg/mL] | Minimum Inhibitory Concentration (MIC) K. pneumoniae ATCC 700603 (K. pneumoniae ATCC700603) [µg/mL] | Minimum Inhibitory Concentration (MIC) P. aeruginosa SR01335 (P. aeruginosa SR01335) [µg/mL] | Minimum Inhibitory Concentration (MIC) E. coli ATCC BAA-200 (E. coli ATCCBAA-200) [µg/mL]
1 | ≤ 0.031 | 0.5 | ≤ 0.031 | 0.125 | 0.5 | 0.5 | 4 | 0.25 | CC(C)(O/N=C(\C(=O)N[C@@H]1C(=O)N2C(c3nnn[n-]3)=C(C[n+]3ccc(NC(=O)c4ccc(O)c(O)c4Cl)cc3)CS[C@H]12)c1nc(N)sc1Cl)C(=O)[O-].[Na+] [Compound I-36] |  |  |  |  |  |  |  | 
2 | ≤ 0.031 | 2 | 0.125 | 0.063 | 0.5 | 0.125 | 2 | 0.125 | CC(C)(O/N=C(\C(=O)N[C@@H]1C(=O)N2C(c3nnn[n-]3)=C(C[N+]3(CCNC(=O)c4ccc(O)c(O)c4Cl)CCCCC3)CS[C@H]12)c1csc(N)n1)C(=O)[O-].[Na+] [Compound I-69] |  |  |  |  |  |  |  | 
3 | ≤ 0.031 | 0.25 | ≤ 0.031 | ≤ 0.031 | 0.25 | 0.063 | 0.5 | 0.063 | CC(C)(O/N=C(\C(=O)N[C@@H]1C(=O)N2C(c3nnn[n-]3)=C(C[n+]3ccc4cc(O)c(O)cc4c3)CS[C@H]12)c1nc(N)sc1Cl)C(=O)[O-].[Na+] [Compound I-37] |  |  |  |  |  |  |  | 
4 |  |  |  |  |  |  |  |  | Nc1nc(C(=NOC(CC(=O)[O-])C(=O)[O-])C(=O)NC2C(=O)N3C(c4nnn[n-]4)=C(C[N+]45CCC(CNC(=O)c6ccc(O)c(O)c6Cl)(CC4)CC5)CSC23)c(Cl)s1.[Na+].[Na+] (stereo not shown) [Compound I-94] | 0.063 | 2 | 0.063 | 0.5 | 0.5 | 0.5 | 1 | 0.5
5 | ≤ 0.031 | 2 | 1 | 1 | 0.5 | 0.5 | 1 | 1 | CC(C)(O/N=C(\C(=O)N[C@@H]1C(=O)N2C(c3nnn[nH]3)=C(C[n+]3cccc4c3CCCN4C(=O)c3ccc(O)c(O)c3Cl)CS[C@H]12)c1nsc(N)n1)C(=O)O.[Na+] [Compound I-115] |  |  |  |  |  |  |  | 
6 | ≤ 0.031 | 1 | 0.063 | 0.125 | 0.5 | 0.125 | 1 | 0.25 | CC(C)(O/N=C(\C(=O)N[C@@H]1C(=O)N2C(c3nnn[n-]3)=C(C[n+]3ccc(CNC(=O)c4ccc(O)c(O)c4Cl)cc3)CS[C@H]12)c1nc(N)sc1Cl)C(=O)[O-].[Na+] [Compound I-31] |  |  |  |  |  |  |  | 

Row | Compound | MIC (E. coli SR01337) [µg/mL] | MIC (P. aeruginosa SR01332) [µg/mL] | MIC (E. coli ATCCBAA-196) [µg/mL] | MIC (E. cloacae NCTC13464) [µg/mL] | MIC (A. baumannii SR01331) [µg/mL] | MIC (K. pneumoniae ATCC700603) [µg/mL] | MIC (P. aeruginosa SR01335) [µg/mL] | MIC (E. coli ATCCBAA-200) [µg/mL] | Minimum Inhibitory Concentration (MIC) E. coli SR01337 (E. coli SR01337) [µg/mL] | Minimum Inhibitory Concentration (MIC) P. aeruginosa SR01332 (P. aeruginosa SR01332) [µg/mL] | Minimum Inhibitory Concentration (MIC) E. coli ATCC BAA-196 (E. coli ATCCBAA-196) [µg/mL] | Minimum Inhibitory Concentration (MIC) E. cloacae NCTC 13464 (E. cloacae NCTC13464) [µg/mL] | Minimum Inhibitory Concentration (MIC) A. baumannii SR01331 (A. baumannii SR01331) [µg/mL] | Minimum Inhibitory Concentration (MIC) K. pneumoniae ATCC 700603 (K. pneumoniae ATCC700603) [µg/mL] | Minimum Inhibitory Concentration (MIC) P. aeruginosa SR01335 (P. aeruginosa SR01335) [µg/mL] | Minimum Inhibitory Concentration (MIC) E. coli ATCC BAA-200 (E. coli ATCCBAA-200) [µg/mL]
7 | CC(C)(O/N=C(\C(=O)N[C@@H]1C(=O)N2C(c3nnn[nH]3)=C(C[N+]3(C)[C@@H]4CC[C@H]3C[C@@H](NC(=O)c3cc(O)c(O)c(F)c3)C4)CS[C@H]12)c1nsc(N)n1)C(=O)O.[Na+] (stereo partly shown) [Compound I-117] | 0.063 | 4 | 1 | 0.5 | 0.5 | 0.25 | 2 | 1 |  |  |  |  |  |  |  | 
8 | CC(C)(O/N=C(\C(=O)N[C@@H]1C(=O)N2C(c3nnn[n-]3)=C(C[N+]3(C)[C@@H]4CC[C@H]3CC(NC(=O)c3cc(O)c(O)c(F)c3)C4)CS[C@H]12)c1nc(N)sc1Cl)C(=O)[O-].[Na+] (stereo partly shown) [Compound I-33] | 0.063 | 2 | 0.063 | 0.25 | 0.5 | 0.25 | 4 | 0.25 |  |  |  |  |  |  |  | 
